The target of assay [1] is BACE1 (Homo sapiens, UniProt P56817). Kind of assay: In vitro enzymatic BACE FRET assay. In kind it is biochemical. As to conditions: IC50 range class; 0.2 nM enzyme, 50 nM FRET substrate, pH 4.2. On the procedure:
In Vitro Enzymatic BACE FRET (Fluorescence Resonance Energy Transfer) Assay (Enzyme Assay Data in Table 1)
The assay buffer used in this screen is 0.05 M acetate, pH 4.2, 10% DMSO final, 100 uM genapol (which is a nonionic detergent, below its Critical Micelle Concentration). The Beta Secretase enzyme (0.2 nM) is pre-incubated for one hour with inhibitors, typically in about 1 uL of DMSO according to a serial dilution, are added thereto. The assay is effectively started by the addition of FRET substrate (50 nM) and the combination is incubated for one hour. The FRET assay is terminated with by addition of Tris buffer, which raises the pH to neutrality, and the fluorescence is determined. The FRET substrate is a peptide with commercially available fluorophore and quencher, on opposite sides of the BACE cleavage site. Proteolytic cleavage of the FRET substrate releases quenching of fluorescence (excitation […] and […]).
Of the compounds tested, the in-vitro BACE FRET enzyme data for each of Examples 1-33, where available at the time of filing this application, is provided in Table 1.

For assay [2], the system named is Aβ40 in conditioned medium of cells stably expressing Amyloid Precursor Protein (APP) (HEK cell). Briefly: In vitro BACE cell-based assay (HEK cell assay, Aβ40 sandwich ELISA). As to conditions: Homo sapiens, HEK293; IC50 range class; inhibition of Aβ40 after 24 h incubation. On the procedure:
In Vitro BACE Cell-Based Assay:
The cell-based assay measures inhibition or reduction of Aβ40 □ in conditioned medium of test compound treated cells expressing amyloid precursor protein.
Cells stably expressing Amyloid Precursor Protein (APP) were plated at a density of 40K cells/well in 96 well plates (Costar). The cells were cultivated for 24 hours at 37° C. and 5% CO2 in DMEM supplemented with 10% FBS. The test compounds were then added to cells in 10-point dose response concentrations with the starting concentration being either 100 μM or 10 μM. The compounds were diluted from stock solutions in DMSO and the final DMSO concentration of the test compounds on cells was 0.1%. After 24 h of incubation with the test compounds the supernatant conditioned media was collected and the Aβ 40 levels were determined using a sandwich ELISA. The IC50 of the compound was calculated from the percent of control or percent inhibition of Aβ40 as a function of the concentration of the test compound.
The sandwich ELISA to detect Aβ 40 was performed in 96 well microtiter plates, which were pre-treated with goat anti-rabbit IgG (Pierce). The capture and detecting antibody pair that were used to detect Aβ 40 from cell supernatants were affinity purified pAb40 (Biosource) and biotinylated 6E10 (Signet Labs Inc.), respectively. The optimal concentration for the pAb40 antibody was 3 μg/ml in Superblock/TBS (Pierce) that was supplemented with 0.05% Tween 20 (Sigma). Optimal concentration for the detection antibody 6E10-biotinylated was 0.5 μg/ml in Superblock/TBS (Pierce) that had been supplemented with 2% normal goat serum and 2% normal mouse serum.
Cellular supernatants were incubated with the capture antibody for 3 h at 4° C., followed by 3 wash steps in TBS-tween (0.05%). The detecting antibody incubation was for 2 h at 4° C., again followed by the wash steps as described previously. The final readout of the ELISA is Time-Resolved Fluorescence (counts per minute) using Delfia reagents Streptavidin-Europium and Enhancement solutions (Perkin Elmer) and the Victor 2 multilabel counter (Perkin Elmer).
Of the compounds tested, the cell based assay data for each of Examples 1-33, where available at the time of filing this application, is provided in Table 1.

By IC50 is commonly meant the midpoint of a concentration-inhibition curve.

Chain of BACE1 (P56817 46-501, species assumed): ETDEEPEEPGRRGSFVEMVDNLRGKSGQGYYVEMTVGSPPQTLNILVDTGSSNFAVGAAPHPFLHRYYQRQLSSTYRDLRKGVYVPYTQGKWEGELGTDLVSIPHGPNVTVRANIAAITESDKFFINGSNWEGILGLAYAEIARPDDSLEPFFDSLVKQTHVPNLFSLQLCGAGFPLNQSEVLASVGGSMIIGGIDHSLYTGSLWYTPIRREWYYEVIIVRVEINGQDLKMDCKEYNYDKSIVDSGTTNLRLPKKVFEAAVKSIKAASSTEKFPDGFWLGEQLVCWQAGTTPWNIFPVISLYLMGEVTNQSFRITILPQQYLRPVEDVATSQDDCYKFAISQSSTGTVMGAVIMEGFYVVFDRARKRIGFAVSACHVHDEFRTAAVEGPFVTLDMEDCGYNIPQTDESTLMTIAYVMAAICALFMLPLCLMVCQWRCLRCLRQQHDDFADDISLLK

Consider `Cc1cccnc1-c1ccc2nc(N)c(CCc3cc(C4CCOCC4)ncn3)cc2c1` [Example 20, 6-(3-methylpyridin-2-yl)-3-(2-(6-(tetrahydro-2H-pyran-4-yl)pyrimidin-4-yl)ethyl)quinolin-2-amine], for which the IC50 in assay [1] lay in the range of 0.1 to 1 µM; in assay [2] it was 1 to 5 µM.
On the same counts, the results for `Cc1ccccc1-c1ccc2nc(N)c(C=Cc3cnn(C4CCCCC4)c3)cc2c1` [Example 24, 3-(2-(1-cyclohexyl-1H-pyrazol-4-yl)vinyl)-6-o-tolylquinolin-2-amine] are 1 to 5 µM and above 5 µM.
As for `CCc1cncc(CCc2cc3cc(-c4ccccc4C)ccc3nc2N)c1` [Example 5, 3-(2-(5-ethylpyridin-3-yl)ethyl)-6-o-tolylquinolin-2-amine], the IC50 in assay [1] and in assay [2] was 1 to 5 µM in each case.
On to `Cc1ccccc1-c1ccc2nc(N)c(CCc3cncc(C4CCCCC4)c3)cc2c1` [Example 3, 3-(2-(5-cyclohexylpyridin-3-yl)ethyl)-6-o-tolylquinolin-2-amine], for which the IC50 in assay [1] is below 0.1 µM; in assay [2] it was above 5 µM.
The matching figures for `Cc1cccc(C(=O)N2CCCC2)c1-c1ccc2nc(N)c(COc3cc(C(F)(F)F)ncn3)cc2c1` [Example 34, (2-(2-amino-3-((6-(trifluoromethyl)pyrimidin-4-yloxy)methyl)quinolin-6-yl)-3-methylphenyl)(pyrrolidin-1-yl)methanone]: 0.1 to 1 µM and 1 to 5 µM.
On the same counts, the results for `Cc1ccccc1-c1ccc2nc(N)c(CCc3cc(C(C)(C)C)ncn3)cc2c1` [Example 8, 3-(2-(6-tert-butylpyrimidin-4-yl)ethyl)-6-o-tolylquinolin-2-amine] are below 0.1 µM and 1 to 5 µM.
With `Cc1ccccc1-c1ccc2nc(N)c(CCc3cncc(C4CCCCO4)c3)cc2c1` (centres unmarked) [Example 31, 3-(2-(5-(tetrahydro-2H-pyran-2-yl)pyridin-3-yl)ethyl)-6-o-tolylquinolin-2-amine], the IC50 is 0.1 to 1 µM in assay [1] and 1 to 5 µM in assay [2].
With `Cc1ccccc1-c1ccc2nc(N)c(COc3cc(C(F)(F)F)ncn3)cc2c1` [Example 11, 6-o-tolyl-3-((6-(trifluoromethyl)pyrimidin-4-yloxy)methyl)quinolin-2-amine], the figures for the IC50 in assay [1] and in assay [2] were 0.1 to 1 µM and above 5 µM, respectively.
The matching figures for `CCc1cc(OCc2cc3cc(-c4ccccc4C)ccc3nc2N)ncn1` [Example 14, 6-o-tolyl-3-((6-ethylpyrimidin-4-yloxy)methyl)quinolin-2-amine]: above 5 µM and above 5 µM.
Regarding `CCc1cc(C(C)Cc2cc3cc(-c4ccccc4C)ccc3nc2N)ncn1` (centres unmarked) [Example 10, 3-(2-(6-ethylpyrimidin-4-yl)propyl)-6-o-tolylquinolin-2-amine], the IC50 in assay [1] lay in the range of 0.1 to 1 µM; in assay [2], 1 to 5 µM.
As for `Cc1cccc(C(=O)N2CCCC2)c1-c1ccc2nc(N)c(CCc3cncnc3)cc2c1` [Example 33, (2-(2-amino-3-(2-(pyrimidin-5-yl)ethyl)quinolin-6-yl)-3-methylphenyl)(pyrrolidin-1-yl)methanone], the figures for the IC50 in assay [1] and in assay [2] were below 0.1 µM and below 0.5 µM, respectively.
Regarding `Cc1cccnc1-c1ccc2nc(N)c(CC(C)c3cc(CC(C)(C)C)ncn3)cc2c1` (centres unmarked) [Example 15, 6-(3-methylpyridin-2-yl)-3-(2-(6-neopentylpyrimidin-4-yl)propyl)quinolin-2-amine], the IC50 in assay [1] was in the range of 0.1 to 1 µM; in assay [2], 0.5 to 1 µM.
On the same counts, the results for `Cc1ccccc1-c1ccc2nc(N)c(CC(C)c3cncc(C4CCCCO4)c3)cc2c1` (centres unmarked) [Example 26, 3-(2-(5-(tetrahydro-2H-pyran-2-yl)pyridin-3-yl)propyl)-6-o-tolylquinolin-2-amine] are 0.1 to 1 µM and 1 to 5 µM.
On the same counts, the results for `Cc1cccnc1-c1ccc2nc(N)c(CCc3cc(C(C)(C)C)ncn3)cc2c1` [Example 16, 3-(2-(6-tert-butylpyrimidin-4-yl)ethyl)-6-(3-methylpyridin-2-yl)quinolin-2-amine] are 0.1 to 1 µM and 1 to 5 µM.
The matching figures for `Cc1ccccc1-c1ccc2nc(N)c(CCc3cc4ccccc4[nH]3)cc2c1` [Example 17, 3-(2-(1H-indol-2-yl)ethyl)-6-o-tolylquinolin-2-amine]: 1 to 5 µM and 0.5 to 1 µM.
In the case of `Cc1ccccc1-c1ccc2nc(N)c(C3CCCC3c3cc(C4CCCC4)ncn3)cc2c1` (centres unmarked) [Example 1, 3-(2-(6-cyclopentylpyrimidin-4-yl)cyclopentyl)-6-o-tolylquinolin-2-amine], the IC50 in assay [1] is below 0.1 µM; in assay [2], above 5 µM.
As to `Cc1ccccc1-c1ccc2nc(N)c(CC(C)c3cncc(C4CCCC4)c3)cc2c1` (centres unmarked) [Example 30, 3-(2-(5-cyclopentylpyridin-3-yl)propyl)-6-o-tolylquinolin-2-amine], the IC50 in assay [1] was below 0.1 µM; in assay [2], 1 to 5 µM.
On the same counts, the results for `Cc1cccnc1-c1ccc2nc(N)c(CCc3cc(CC(C)(C)C)ncn3)cc2c1` [Example 6, 6-(3-methylpyridin-2-yl)-3-(2-(6-neopentylpyrimidin-4-yl)ethyl)quinolin-2-amine] are 0.1 to 1 µM and 1 to 5 µM.
On the same counts, the results for `Cc1ccccc1-c1ccc2nc(N)c(CCc3ccccn3)cc2c1` [Example 29, 3-(2-(pyridin-2-yl)ethyl)-6-o-tolylquinolin-2-amine] are 1 to 5 µM and above 5 µM.
Take `Cc1cccc(C(=O)N2CCCC2C)c1-c1ccc2nc(N)c(CCc3cncnc3)cc2c1` (racemic) [Example 32, (±)-(2-(2-amino-3-(2-(pyrimidin-5-yl)ethyl)quinolin-6-yl)-3-methylphenyl)(2-methylpyrrolidin-1-yl)methanone]: the results for the IC50 in assay [1] and in assay [2] were below 0.1 µM and below 0.5 µM, respectively.
The matching figures for `Cc1ccccc1-c1ccc2nc(N)c(CC(C)c3cc(CC(C)(C)C)ncn3)cc2c1` (centres unmarked) [Example 9, 3-(2-(6-neopentylpyrimidin-4-yl)propyl)-6-o-tolylquinolin-2-amine]: below 0.1 µM and 0.5 to 1 µM.
On the same counts, the results for `Cc1ccccc1-c1ccc2nc(N)c(C3OCCCC3c3cc(CC(C)(C)C)ncn3)cc2c1` (single isomer, unassigned) [Example 7] are below 0.1 µM and 1 to 5 µM.
Take `Cc1ccccc1-c1ccc2nc(N)c(CCc3cncc(CC(C)(C)C)c3)cc2c1` [Example 21, 3-(2-(5-neopentylpyridin-3-yl)ethyl)-6-o-tolylquinolin-2-amine]: the results for the IC50 in assay [1] and in assay [2] were 0.1 to 1 µM and above 5 µM, respectively.
`Cc1ccccc1-c1ccc2nc(N)c(CC(C)c3cc(C4CCCC4)ncn3)cc2c1` (centres unmarked) [Example 13, 3-(2-(6-cyclopentylpyrimidin-4-yl)propyl)-6-o-tolylquinolin-2-amine]: the values for the IC50 in assay [1] and in assay [2] were below 0.1 µM and 1 to 5 µM, respectively.
Turning to `Cc1ccccc1-c1ccc2nc(N)c(CC(C)c3cncc(C4CCCCC4)c3)cc2c1` (centres unmarked) [Example 27, 3-(2-(5-cyclohexylpyridin-3-yl)propyl)-6-o-tolylquinolin-2-amine], the figures for the IC50 in assay [1] and in assay [2] were below 0.1 µM and above 5 µM, respectively.
In the case of `Cc1ccccc1-c1ccc2nc(N)c(CCc3cncc(CC(C)C)c3)cc2c1` [Example 18, 3-(2-(5-isobutylpyridin-3-yl)ethyl)-6-o-tolylquinolin-2-amine], the figures for the IC50 in assay [1] and in assay [2] were 0.1 to 1 µM and 1 to 5 µM, respectively.
The matching figures for `Cc1ccccc1-c1ccc2nc(N)c(CCc3cnn(C4CCCCC4)c3)cc2c1` [Example 25, 3-(2-(1-cyclohexyl-1H-pyrazol-4-yl)ethyl)-6-o-tolylquinolin-2-amine]: below 0.1 µM and 1 to 5 µM.
On the same counts, the results for `Cc1ccccc1-c1ccc2nc(N)c(CCc3cnn(Cc4ccccc4)c3)cc2c1` [Example 19, 3-(2-(1-benzyl-1H-pyrazol-4-yl)ethyl)-6-o-tolylquinolin-2-amine] are 0.1 to 1 µM and 1 to 5 µM.

The record behind these values is patent US8822485B2, “Amino heteroaryl compounds as beta-secretase modulators and methods of use” (Amgen Inc., priority 2010, dated 2014).
